Results as given in ChEMBL document CHEMBL4043271, “Synthesis, computational studies and enzyme inhibitory kinetics of substituted methyl[2-(4-dimethylamino-benzylidene)-hydrazono)-4-oxo-thiazolidin-5-ylidene]acetates as mushroom tyrosinase inhibitors” (Bioorg Med Chem, 2017).
Calls of active or inactive are those of the source. The rule behind the calls is not given here.

Columns and labels:
[1] = molecular target: T1, Mushroom tyrosinase (Agaricus bisporus, UniProt O42713+Q00024+C7FF04+C7FF05); assay: Inhibition of mushroom tyrosinase using L-DOPA as substrate preincubated for 10 mins followed by substrate addition measured after 20 mins
[2] = test system: COC(=O)/C=C1\S/C(=N/N=C/c2ccncc2)NC1=O; assay: Non-competitive inhibition of mushroom tyrosinase assessed as Vmax of substrate at 8.50 uM preincubated for 10 mins followed by addition of varying concentration of substrate L-DOPA measured every 30 secs up to 5 mins by Lineweaver-Burk plot analysis (reference value: […] deltaA/s); settings: Agaricus bisporus
[3] = test system: COC(=O)/C=C1\S/C(=N/N=C/c2ccncc2)NC1=O; assay: Non-competitive inhibition of mushroom tyrosinase assessed as substrate Km at 1.06 to 17 uM preincubated for 10 mins followed by addition of varying concentration of substrate L-DOPA measured after 20 mins by Lineweaver-Burk plot analysis (reference value: […] mM); settings: Agaricus bisporus
[4] = test system: COC(=O)/C=C1\S/C(=N/N=C/c2ccncc2)NC1=O; assay: Non-competitive inhibition of mushroom tyrosinase assessed as Vmax of substrate at 17 uM preincubated for 10 mins followed by addition of varying concentration of substrate L-DOPA measured every 30 secs up to 5 mins by Lineweaver-Burk plot analysis (reference value: […] deltaA/s); settings: Agaricus bisporus
[5] = test system: COC(=O)/C=C1\S/C(=N/N=C/c2ccncc2)NC1=O; assay: Non-competitive inhibition of mushroom tyrosinase assessed as Vmax of substrate at 1.06 uM preincubated for 10 mins followed by addition of varying concentration of substrate L-DOPA measured every 30 secs up to 5 mins by Lineweaver-Burk plot analysis (reference value: […] deltaA/s); settings: Agaricus bisporus
[6] = molecular target: Mushroom tyrosinase (Agaricus bisporus) (UniProt O42713+Q00024+C7FF04+C7FF05); assay: Non-competitive inhibition of mushroom tyrosinase at 1.06 to 34 uM preincubated for 10 mins followed by addition of varying concentration of substrate L-DOPA measured after 20 mins by Dixon plot analysis
[7] = molecular target: T1, Mushroom tyrosinase; assay: Non-competitive inhibition of mushroom tyrosinase at 1.06 to 17 uM preincubated for 10 mins followed by addition of varying concentration of substrate L-DOPA measured after 20 mins by Lineweaver-Burk plot analysis

Sequence of Mushroom tyrosinase (Agaricus bisporus) (from UniProt O42713+Q00024+C7FF04+C7FF05) (C7FF05 whole entry, looked up): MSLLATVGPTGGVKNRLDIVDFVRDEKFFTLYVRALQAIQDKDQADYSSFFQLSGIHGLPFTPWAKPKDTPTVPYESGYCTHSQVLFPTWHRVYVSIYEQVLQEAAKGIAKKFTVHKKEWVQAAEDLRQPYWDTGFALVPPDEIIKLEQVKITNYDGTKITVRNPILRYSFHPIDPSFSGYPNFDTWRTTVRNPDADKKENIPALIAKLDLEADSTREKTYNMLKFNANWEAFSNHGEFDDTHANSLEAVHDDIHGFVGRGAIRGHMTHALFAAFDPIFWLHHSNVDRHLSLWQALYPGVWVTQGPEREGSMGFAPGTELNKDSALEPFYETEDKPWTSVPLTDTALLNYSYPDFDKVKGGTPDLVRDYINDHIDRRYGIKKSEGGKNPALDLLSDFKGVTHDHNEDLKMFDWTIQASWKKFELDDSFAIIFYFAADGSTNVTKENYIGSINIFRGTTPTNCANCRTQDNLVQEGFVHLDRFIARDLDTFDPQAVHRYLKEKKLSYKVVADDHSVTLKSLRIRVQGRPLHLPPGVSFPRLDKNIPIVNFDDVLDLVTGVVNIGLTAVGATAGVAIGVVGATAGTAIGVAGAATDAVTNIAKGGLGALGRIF
Sequence of Mushroom tyrosinase (Agaricus bisporus) (from UniProt O42713+Q00024+C7FF04+C7FF05) (C7FF04 whole entry, looked up): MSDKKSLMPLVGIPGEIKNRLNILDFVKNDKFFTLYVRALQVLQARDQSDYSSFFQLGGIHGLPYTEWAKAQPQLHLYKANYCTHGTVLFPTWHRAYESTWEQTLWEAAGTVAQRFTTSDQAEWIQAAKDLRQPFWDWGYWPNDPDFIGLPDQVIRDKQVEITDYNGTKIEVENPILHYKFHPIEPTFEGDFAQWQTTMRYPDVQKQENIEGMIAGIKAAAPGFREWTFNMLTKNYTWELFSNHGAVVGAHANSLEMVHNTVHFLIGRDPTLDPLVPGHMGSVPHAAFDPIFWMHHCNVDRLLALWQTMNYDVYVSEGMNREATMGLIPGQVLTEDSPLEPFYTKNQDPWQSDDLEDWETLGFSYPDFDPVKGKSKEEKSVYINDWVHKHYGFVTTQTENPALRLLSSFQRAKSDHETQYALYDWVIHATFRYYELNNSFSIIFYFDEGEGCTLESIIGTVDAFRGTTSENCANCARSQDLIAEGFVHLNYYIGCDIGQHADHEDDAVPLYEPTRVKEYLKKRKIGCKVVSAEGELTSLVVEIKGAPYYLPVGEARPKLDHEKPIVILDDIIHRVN
Sequence of Mushroom tyrosinase (Agaricus bisporus) (from UniProt O42713+Q00024+C7FF04+C7FF05) (Q00024 whole entry, looked up): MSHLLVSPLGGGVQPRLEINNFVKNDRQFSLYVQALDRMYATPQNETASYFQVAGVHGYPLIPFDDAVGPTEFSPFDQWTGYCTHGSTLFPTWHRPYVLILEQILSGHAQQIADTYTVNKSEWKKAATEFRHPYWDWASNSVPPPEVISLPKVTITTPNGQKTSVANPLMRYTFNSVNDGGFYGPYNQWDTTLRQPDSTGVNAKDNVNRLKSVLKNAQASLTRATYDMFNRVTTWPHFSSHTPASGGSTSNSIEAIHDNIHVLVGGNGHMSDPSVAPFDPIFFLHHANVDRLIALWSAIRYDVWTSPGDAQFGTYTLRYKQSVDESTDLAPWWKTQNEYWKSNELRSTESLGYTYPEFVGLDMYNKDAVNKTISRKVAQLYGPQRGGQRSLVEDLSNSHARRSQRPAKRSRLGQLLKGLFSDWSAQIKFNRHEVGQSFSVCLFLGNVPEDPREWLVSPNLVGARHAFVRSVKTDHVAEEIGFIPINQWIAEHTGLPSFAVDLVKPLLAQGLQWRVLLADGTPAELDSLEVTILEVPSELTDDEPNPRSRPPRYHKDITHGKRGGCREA
Sequence of Mushroom tyrosinase (Agaricus bisporus) (from UniProt O42713+Q00024+C7FF04+C7FF05) (O42713 whole entry, looked up): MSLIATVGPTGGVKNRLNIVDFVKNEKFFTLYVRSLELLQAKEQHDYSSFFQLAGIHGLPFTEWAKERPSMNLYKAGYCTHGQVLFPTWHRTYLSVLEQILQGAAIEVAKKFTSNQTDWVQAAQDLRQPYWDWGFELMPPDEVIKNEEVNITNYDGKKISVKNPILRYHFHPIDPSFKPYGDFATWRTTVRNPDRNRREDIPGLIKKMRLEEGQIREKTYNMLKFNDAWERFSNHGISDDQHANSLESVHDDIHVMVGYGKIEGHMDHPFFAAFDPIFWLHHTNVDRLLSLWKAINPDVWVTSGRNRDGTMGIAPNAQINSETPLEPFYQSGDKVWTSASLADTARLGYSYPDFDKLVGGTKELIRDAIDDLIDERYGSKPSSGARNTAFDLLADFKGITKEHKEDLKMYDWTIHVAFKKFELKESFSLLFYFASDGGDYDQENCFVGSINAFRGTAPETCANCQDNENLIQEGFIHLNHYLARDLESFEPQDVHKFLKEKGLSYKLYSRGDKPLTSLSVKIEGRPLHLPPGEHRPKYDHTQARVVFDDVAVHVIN

IC50 [1] | Compound | also measured
208.25 µM | COC(=O)/C=C1\S/C(=N/N=C/C=C/c2ccccc2)NC1=O | –
100.45 µM | COC(=O)/C=C1\S/C(=N/N=C/c2ccc(N(C)C)cc2)NC1=O | –
50.12 µM | COC(=O)/C=C1\S/C(=N/N=C/c2ccc[nH]2)NC1=O | –
– | Mushroom tyrosinase (Agaricus bisporus) (from UniProt O42713+Q00024+C7FF04+C7FF05) | Vmax (10'-3deltaA/s) [2]: 1; Km [3]: 1000 µM; Vmax (10'-3deltaA/s) [4]: 3.33; Vmax (10'-4deltaA/s) [5]: 5.55
297.6 µM | COC(=O)/C=C1\S/C(=N/N=C/c2ccc(OCc3ccc(OC)cc3)cc2)NC1=O | –
75.26 µM | COC(=O)/C=C1\SC(N/N=C/c2ccco2)=NC1=O | –
3.17 µM | COC(=O)/C=C1\S/C(=N/N=C/c2ccncc2)NC1=O | inhibition [6]: Active; Ki [7]: 1.5 µM
141.77 µM | COC(=O)/C=C1\S/C(=N/N=C/c2ccc(OCc3ccccc3)cc2)NC1=O | –
348.93 µM | COC(=O)/C=C1\S/C(=N/N=C/c2ccc(Br)s2)NC1=O | –
49.82 µM | COC(=O)/C=C1\S/C(=N/N=C/c2ccc(C)o2)NC1=O | –
